For five molecules, inhibition and IC50 results are on record in ChEMBL document CHEMBL4390705, “A new lateral root growth inhibitor from the sponge-derived fungus Aspergillus sp. LS45” (Bioorg Med Chem Lett, 2019).

Assay [1] relates to Arabidopsis thaliana. Kind of assay: Inhibition of seed germination in Arabidopsis thaliana Columbia-0 assessed as reduction in primary root growth at 100 uM incubated for 10 days under 16 hrs-light/8 hrs-dark condition by microscopic analysis. It counts as functional, organism-based.
Assay [2] relates to Arabidopsis thaliana. The assay can be described thus: Inhibition of seed germination in Arabidopsis thaliana Columbia-0 assessed as reduction in lateral root growth at 50 to 100 uM incubated for 10 days under 16 hrs-light/8 hrs-dark condition by microscopic analysis. The class given is functional, organism-based.
Assay [3] relates to Arabidopsis thaliana. The assay can be described thus: Inhibition of seed germination in Arabidopsis thaliana Columbia-0 assessed as reduction in primary root growth at 50 uM incubated for 10 days under 16 hrs-light/8 hrs-dark condition by microscopic analysis. The class given is functional, organism-based.
The subject of a further assay is CCRF-CEM. The assay can be described thus: Cytotoxicity against human CCRF-CEM cells by MTT assay. The class given is functional, cell-based.
The test system of a further assay is AGS. The assay can be described thus: Cytotoxicity against human AGS cells by MTT assay. The class given is functional, cell-based.
The target of a further assay is T1, Acetylcholinesterase (Mus musculus, UniProt P21836).
T1 sequence (P21836 whole entry): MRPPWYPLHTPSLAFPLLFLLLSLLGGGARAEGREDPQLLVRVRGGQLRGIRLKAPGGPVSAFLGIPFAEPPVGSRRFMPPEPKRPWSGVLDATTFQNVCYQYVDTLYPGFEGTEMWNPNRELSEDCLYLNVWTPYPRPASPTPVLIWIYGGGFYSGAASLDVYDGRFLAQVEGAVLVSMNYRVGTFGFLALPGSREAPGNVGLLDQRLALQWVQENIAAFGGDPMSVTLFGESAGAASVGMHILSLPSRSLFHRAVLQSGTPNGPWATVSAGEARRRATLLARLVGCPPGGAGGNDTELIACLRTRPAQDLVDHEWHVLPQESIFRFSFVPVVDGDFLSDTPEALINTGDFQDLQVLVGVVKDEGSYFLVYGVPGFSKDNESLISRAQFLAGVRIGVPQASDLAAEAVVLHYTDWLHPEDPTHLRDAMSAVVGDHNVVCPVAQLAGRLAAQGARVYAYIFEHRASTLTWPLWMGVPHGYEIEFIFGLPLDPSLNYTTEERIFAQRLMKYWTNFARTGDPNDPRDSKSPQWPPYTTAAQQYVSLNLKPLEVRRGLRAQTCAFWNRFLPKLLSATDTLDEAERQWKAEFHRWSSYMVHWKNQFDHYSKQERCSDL
Kind of assay: Inhibition of mouse brain homogenate AChE using acetylthiocholine iodide as substrate measured after 15 mins in presence of BChE inhibitor methopropazine hydrochloride by DTNB reagent based colorimetric method. It counts as tissue-based.

A further assay relates to MDA-MB-231. The assay can be described thus: Cytotoxicity against human MDA-MB-231 cells by MTT assay. It counts as functional, cell-based.
The subject of another assay is HCT-116. The assay can be described thus: Cytotoxicity against human HCT116 cells by MTT assay. The class given is functional, cell-based.
Another assay relates to K562. The assay can be described thus: Cytotoxicity against human K562 cells by MTT assay. It counts as functional, cell-based.
In a further assay the test system is BGC-823. Kind of assay: Cytotoxicity against human BGC823 cells by MTT assay. The class given is functional, cell-based.
Assay [4] has as its system Arabidopsis thaliana. The assay can be described thus: Inhibition of seed germination in Arabidopsis thaliana Columbia-0 assessed as reduction in primary root growth up to 100 uM incubated for 10 days under 16 hrs-light/8 hrs-dark condition by microscopic analysis. The class given is functional, organism-based.
Assay [5] has as its system Arabidopsis thaliana. The assay can be described thus: Inhibition of seed germination in Arabidopsis thaliana Columbia-0 assessed as reduction in lateral root growth up to 100 uM incubated for 10 days under 16 hrs-light/8 hrs-dark condition by microscopic analysis. The class given is functional, organism-based.

Activity calls are given as the source filed them. The calls are words filed in the database; no cut-off is given here. A value given as a limit tells only on which side of the number the result lay.

Consider `CCCC1=C/C(=C/[C@H](O)[C@@H](C)O)OC1=O`, for which, in the assay on Arabidopsis thaliana [1], the inhibition result was “inactive”. Further, the inhibition result with Arabidopsis thaliana [2] and with Arabidopsis thaliana [3] was “Active” each time. Further, the IC50 is over 50 µM with CCRF-CEM; over 50 µM with AGS; over 200 µM at Acetylcholinesterase; over 50 µM in the assay with MDA-MB-231; over 50 µM in the assay with HCT-116; over 50 µM in the assay with K562. In addition, in the assay on BGC-823, the concentration for half-maximal inhibition (IC50) is over 50 µM.
On to `CC[C@H](O)c1oc(=O)cc(OC)c1C`, for which the IC50 is over 50 µM in the assay with CCRF-CEM; over 50 µM with AGS; over 200 µM at Acetylcholinesterase; over 50 µM in the assay with MDA-MB-231; over 50 µM with HCT-116; over 50 µM with K562. Besides, in the assay on BGC-823, the IC50 is over 50 µM. The inhibition result with Arabidopsis thaliana [4] and with Arabidopsis thaliana [5] was “inactive” each time.
Take `Nc1cc(F)ccc1NC(=O)c1ccc(CNC(=O)/C=C/c2cccnc2)cc1` [TUCIDINOSTAT]: the half-maximal inhibitory concentration (IC50) turned out to be 0.63 µM with CCRF-CEM and 1.34 µM in the assay on K562.
Regarding `CC(C)c1ccc(CO)c2ccc(C(=O)O)cc12`, the inhibition entry with Arabidopsis thaliana [1] was “inactive”. Further, the inhibition result in the assay with Arabidopsis thaliana [2] and in the assay with Arabidopsis thaliana [3] was “Active” throughout. Moreover, the IC50 is 13.8 µM in the assay with CCRF-CEM, over 200 µM on Acetylcholinesterase and 12.9 µM in the assay on K562.
On to `CCCC1=C/C(=C\[C@H](O)[C@@H](C)O)OC1=O`, for which the IC50 in the assay with CCRF-CEM was over 50 µM; in the assay on AGS, over 50 µM; at Acetylcholinesterase it was over 200 µM; in the assay with MDA-MB-231, over 50 µM; with HCT-116, over 50 µM; in the assay on K562 it was over 50 µM. The IC50 in the assay on BGC-823 was over 50 µM. The inhibition entry with Arabidopsis thaliana [4] and in the assay with Arabidopsis thaliana [5] was “inactive” throughout.
